Four molecules from patent US20110111016A1, “NON-DNA BASE-CONTAINING POLYNUCLEOTIDE COMPOSITIONS AND THEIR USE FOR THE MODULATION OF IMMUNE RESPONSES” (priority 2009, published 2011) can be followed below.

Common to all, as to type: cell-based
For one assay, the target named is T1, human TLR9 (Homo sapiens, UniProt Q9NR96).
T1 construct: host or cells: HEK293
T1 sequence (Q9NR96 26-1032): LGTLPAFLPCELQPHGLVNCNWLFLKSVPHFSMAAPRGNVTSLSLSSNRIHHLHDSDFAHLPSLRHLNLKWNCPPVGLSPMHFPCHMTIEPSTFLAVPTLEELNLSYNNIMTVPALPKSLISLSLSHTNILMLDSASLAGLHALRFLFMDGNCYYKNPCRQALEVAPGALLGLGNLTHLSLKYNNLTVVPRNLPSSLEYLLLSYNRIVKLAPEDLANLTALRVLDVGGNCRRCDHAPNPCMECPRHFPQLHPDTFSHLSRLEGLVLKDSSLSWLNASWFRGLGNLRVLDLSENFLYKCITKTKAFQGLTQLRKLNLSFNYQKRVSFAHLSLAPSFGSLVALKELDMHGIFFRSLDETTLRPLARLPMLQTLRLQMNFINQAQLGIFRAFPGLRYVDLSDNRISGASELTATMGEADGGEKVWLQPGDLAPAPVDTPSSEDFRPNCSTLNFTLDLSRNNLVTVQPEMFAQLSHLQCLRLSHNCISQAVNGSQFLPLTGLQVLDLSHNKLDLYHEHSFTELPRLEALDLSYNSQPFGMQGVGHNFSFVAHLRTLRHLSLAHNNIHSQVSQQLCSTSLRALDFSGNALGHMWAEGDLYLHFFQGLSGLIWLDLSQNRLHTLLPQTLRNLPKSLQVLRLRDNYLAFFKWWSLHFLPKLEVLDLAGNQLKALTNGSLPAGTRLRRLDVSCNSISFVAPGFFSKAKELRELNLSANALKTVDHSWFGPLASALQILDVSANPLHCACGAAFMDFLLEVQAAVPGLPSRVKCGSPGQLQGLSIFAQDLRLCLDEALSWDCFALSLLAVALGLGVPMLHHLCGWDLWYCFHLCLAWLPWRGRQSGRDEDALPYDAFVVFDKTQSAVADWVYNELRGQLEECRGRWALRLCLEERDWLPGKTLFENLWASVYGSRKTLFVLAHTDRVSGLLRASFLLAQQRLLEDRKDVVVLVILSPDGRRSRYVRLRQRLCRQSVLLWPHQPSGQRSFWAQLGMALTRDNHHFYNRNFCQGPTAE
In words: NF-κB activation (secreted alkaline phosphatase reporter) in HEK293 cells expressing human TLR9. To be noted: HEK293/hTLR9 cell line; at 100 ng/mL; 16-20 hours. The method, then:
Toll-like receptors (TLR) are known to interact with a number of natural and synthetic molecules that can function as immune adjuvants. Examples of these molecules are Poly (I:C) polynucleotides, lipopolysaccharide and CpG-containing polynucleotides. The interaction of non-DNA base-containing polynucleotides (SEQ ID NOs: 1-3) to interact with TLR and induce down-stream signaling was tested by assessing NF-κB activation in HEK293 cells expressing human TLR2, 3, 4, 5, 7, 8 and 9. TLR engagement was determined by measurement of secreted alkaline phosphatase, under the control of a reporter inducible by NF-κB. Appropriate positive controls were used for each TLR. […] HEK293 cells containing the appropriate TLR and NF-κB reporting system (InvivoGen, San Diego, Calif., USA) were placed in wells of 96 well plates (25,000-50,000 cells, in a final volume of 200 μL medium designed for the detection of NF-κB induced secreted alkaline phosphatase expression), and incubated with non-DNA base-containing polynucleotides or positive controls for 16-20 hours. TLR activating activity was determined by measurement of absorbance at 650 nm wavelength using a Coulter AD340C absorbance detector. The results shown are expressed as Optical Density (OD).

The next assay deals with human PBMC. In words: Induction of cytokines from human PBMC (ELISA cytokine capture assay). Conditions: PBMC of 3 healthy adults, 48 h; increase two-fold that of background control; SEQ ID NOs 1-3 100 μg/mL, CpG 2006 and MCC 1-100 μg/mL, LPS 10 μg/mL. The text has this: A number of immune adjuvants are known to be capable of eliciting cytokines from human PBMC cells. Examples of such adjuvants are alum, lipopolysaccharide, monophosphoryl lipid A, CpG-containing polynucleotides and non-CpG-containing ODN's, as well as mycobacterial cell wall-DNA complex (MCC). […] PBMC were isolated from whole blood using standard Ficoll-Paque (GE Healthcare Life Sciences, Baie d'Urfé, QC, Canada) gradient centrifugation, and placed in tissue culture plates at a concentration of 10^6 cells/mL (total volume: 1 mL in RPMI 1640 medium containing 10% heat-inactivated FBS, both from Wisent, St-Bruno, QC, Canada) and 50 μg/mL gentamycin sulfate (Sigma-Aldrich Canada, Oakville, ON, Canada). SEQ ID NOs: 1, 2 or 3 were added to give a final concentration of 100 μg/mL, and the cells were cultivated for 48 h. Cytokines (IL-1β, IL-2, IL-6, IL-10 and IL-12p40) in the supernatant at the end of incubation were determined by ELISA using a cytokine capture assay process (Biosource, Camarillo, Calif.). SEQ ID NO: 32 CpG 2006 ODN (1-100 μg/mL, 5′-[…]-3′, […]), MCC (1-100 μg/mL) and LPS (10 μg/mL) were used as positive controls.
(ELISA stands for enzyme-linked immunosorbent assay.)

Another assay concerns NF-κB control cells. In words: NF-κB reporter control cells (secreted alkaline phosphatase). To be noted: at 100 ng/mL, 16-20 hours. Here is the method: (§1) Toll-like receptors (TLR) are known to interact with a number of natural and synthetic molecules that can function as immune adjuvants. Examples of these molecules are Poly (I:C) polynucleotides, lipopolysaccharide and CpG-containing polynucleotides. The interaction of non-DNA base-containing polynucleotides (SEQ ID NOs: 1-3) to interact with TLR and induce down-stream signaling was tested by assessing NF-κB activation in HEK293 cells expressing human TLR2, 3, 4, 5, 7, 8 and 9. TLR engagement was determined by measurement of secreted alkaline phosphatase, under the control of a reporter inducible by NF-κB. Appropriate positive controls were used for each TLR. The non-DNA base-containing polynucleotides were dissolved in sterile water at a concentration of 100 μg/mL, and used at a final concentration of 10 μg/mL. HEK293 cells containing the appropriate TLR and NF-κB reporting system (InvivoGen, San Diego, Calif., USA) were placed in wells of 96 well plates (25,000-50,000 cells, in a final volume of 200 μL medium designed for the detection of NF-κB induced secreted alkaline phosphatase expression), and incubated with non-DNA base-containing polynucleotides or positive controls for 16-20 hours. TLR activating activity was determined by measurement of absorbance at 650 nm wavelength using a Coulter AD340C absorbance detector. The results shown are expressed as Optical Density (OD).

Another assay deals with T2, human TLR3 (Homo sapiens, UniProt O15455).
T2 construct: host or cells: HEK293
T2 sequence (O15455 24-904): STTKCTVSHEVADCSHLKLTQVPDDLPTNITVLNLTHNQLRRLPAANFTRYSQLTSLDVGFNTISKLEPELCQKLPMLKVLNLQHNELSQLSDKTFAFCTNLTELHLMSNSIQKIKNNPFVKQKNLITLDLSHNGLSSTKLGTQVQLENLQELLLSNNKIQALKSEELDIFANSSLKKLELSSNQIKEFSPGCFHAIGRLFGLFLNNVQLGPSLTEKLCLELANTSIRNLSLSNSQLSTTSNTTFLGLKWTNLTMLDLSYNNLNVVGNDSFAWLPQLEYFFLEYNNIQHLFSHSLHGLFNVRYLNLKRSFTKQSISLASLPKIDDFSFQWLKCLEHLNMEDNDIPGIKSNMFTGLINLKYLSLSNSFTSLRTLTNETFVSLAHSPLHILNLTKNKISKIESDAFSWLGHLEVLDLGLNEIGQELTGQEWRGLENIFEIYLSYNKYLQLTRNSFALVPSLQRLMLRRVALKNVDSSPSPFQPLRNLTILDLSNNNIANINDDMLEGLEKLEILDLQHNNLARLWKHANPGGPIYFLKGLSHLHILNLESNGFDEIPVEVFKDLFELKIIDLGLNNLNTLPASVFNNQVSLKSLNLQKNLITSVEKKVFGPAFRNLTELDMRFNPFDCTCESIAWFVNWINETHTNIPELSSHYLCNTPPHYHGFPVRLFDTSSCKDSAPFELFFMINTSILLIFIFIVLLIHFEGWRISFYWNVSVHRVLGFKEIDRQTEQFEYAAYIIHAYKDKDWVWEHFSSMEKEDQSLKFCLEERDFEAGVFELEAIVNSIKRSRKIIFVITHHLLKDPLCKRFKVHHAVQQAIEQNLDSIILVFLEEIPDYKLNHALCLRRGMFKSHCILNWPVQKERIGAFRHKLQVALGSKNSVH
In words: NF-κB activation (secreted alkaline phosphatase reporter) in HEK293 cells expressing human TLR3. To be noted: HEK293/hTLR3 cell line; at 1 μg/mL; 16-20 hours. Here is the method:
as §1

The target in the next assay is T3, human TLR5 (Homo sapiens, UniProt O60602).
T3 construct: host or cells: HEK293
T3 sequence (O60602 21-858): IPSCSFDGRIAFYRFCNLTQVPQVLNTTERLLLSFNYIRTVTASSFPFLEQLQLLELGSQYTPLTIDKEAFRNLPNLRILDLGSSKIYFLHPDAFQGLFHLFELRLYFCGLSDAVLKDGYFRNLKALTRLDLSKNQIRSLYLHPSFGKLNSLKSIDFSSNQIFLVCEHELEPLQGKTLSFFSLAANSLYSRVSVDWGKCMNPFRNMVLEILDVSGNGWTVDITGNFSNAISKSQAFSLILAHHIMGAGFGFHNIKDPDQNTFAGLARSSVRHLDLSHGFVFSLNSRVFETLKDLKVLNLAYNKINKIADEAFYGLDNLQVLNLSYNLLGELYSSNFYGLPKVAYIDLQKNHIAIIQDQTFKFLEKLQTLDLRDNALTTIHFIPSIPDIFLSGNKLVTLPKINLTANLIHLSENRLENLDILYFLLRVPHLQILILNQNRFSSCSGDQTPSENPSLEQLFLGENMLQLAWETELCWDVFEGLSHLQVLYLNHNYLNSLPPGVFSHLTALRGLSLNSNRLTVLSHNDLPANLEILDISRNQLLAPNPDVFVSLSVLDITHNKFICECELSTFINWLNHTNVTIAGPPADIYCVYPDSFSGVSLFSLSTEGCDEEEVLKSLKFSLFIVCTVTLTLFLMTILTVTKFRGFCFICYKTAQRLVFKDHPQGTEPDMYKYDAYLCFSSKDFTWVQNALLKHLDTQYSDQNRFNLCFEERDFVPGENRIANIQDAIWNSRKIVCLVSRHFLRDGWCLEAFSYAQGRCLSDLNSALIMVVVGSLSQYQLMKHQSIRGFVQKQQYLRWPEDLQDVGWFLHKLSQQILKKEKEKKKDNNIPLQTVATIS
In words: NF-κB activation (secreted alkaline phosphatase reporter) in HEK293 cells expressing human TLR5. Conditions: HEK293/hTLR5 cell line; at 100 ng/mL; 16-20 hours. The method, then:
as §1

Regarding “5′-TCGTCGTTTTGTCGTTTTGTCGTT-3′ [SEQ ID NO: 32 CpG 2006, reference compound]”, the “TLR activation, Optical Density at 650 nm, hTLR9, positive control” value at human TLR9 is recorded as 1.904. In addition, in the assay on human PBMC, the “Number of individuals responding, IL-1β” value is recorded as 0/3; the “Number of individuals responding, IL-2” value is 0/3; the “Number of individuals responding, IL-6” value is on record as 3/3; the “Number of individuals responding, IL-10” value is reported as 2/3. Moreover, in the assay with human PBMC, the “Number of individuals responding, IL-12p40” value is given as 1/3.
On to `CCCCCCCCCCCCCC(=O)O[C@@H]1[C@@H](C)[C@@]2(O)[C@@H](C=C(CO)C[C@]3(O)C(=O)C(C)=C[C@@H]23)[C@@H]2C(C)(C)[C@]12OC(C)=O` [PMA, reference compound], for which the “Optical Density at 650 nm, NF-κB control cells, positive control” value with NF-κB control cells is 2.765.
As to Poly (I:C) [reference compound], the “TLR activation, Optical Density at 650 nm, hTLR3, positive control” value on human TLR3 stood at 2.547.

B1: S. typhimurium flagellin: hTLR5 positive control (protein)
chain: AQVINTNSLSLLTQNNLNKSQSALGTAIERLSSGLRINSAKDDAAGQAIANRFTANIKGLTQASRNANDGISIAQTTEGALNEINNNLQRVRELAVQSANSTNSQSDLDSIQAEITQRLNEIDRVSGQTQFNGVKVLAQDNTLTIQVGANDGETIDIDLKQINSQTLGLDTLNVQQKYKVSDTAATVTGYADTTIALDNSTFKASATGLGGTDQKIDGDLKFDDTTGKYYAKVTVTGGTGKDGYYEVSVDKTNGEVTLAGGATSPLTGGLPATATEDVKNVQVANADLTEAKAALTAAGVTGTASVVKMSYTDNNGKTIDGGLAVKVGDDYYSATQNKDGSISINTTKYTADDGTSKTALNKLGGADGKTEVVSIGGKTYAASKAEGHNFKAQPDLAEAAATTTENPLQKIDAALAQVDTLRSDLGAVQNRFNSAITNLGNTVNNLTSARSRIEDSDYATEVSNMSRAQILQQAGTSVLAQANQVPQNVLSLLR
Turning to B1, the “TLR activation, Optical Density at 650 nm, hTLR5, positive control” value in the assay with human TLR5 came to 2.593.
